Test results from US10167266B2, “Sodium channel blockers” (Parion Sciences, Inc., priority 2002, dated 2019).
Where a name gives a salt, the structure may show the parent alone.

What was measured:
[1] = system: sodium channel (ENaC), canine bronchial epithelia; assay: Sodium channel blocking activity: inhibition of short circuit current (ISC) in airway epithelial monolayers in Ussing chambers; assay type: cell-based
Procedure: One assay used to assess mechanism of action and/or potency of the compounds of the present invention involves the determination of lumenal drug inhibition of airway epithelial sodium currents measured under short circuit current (ISC) using airway epithelial monolayers mounted in Ussing chambers. Cells obtained from freshly excised human, dog, sheep or rodent airways are seeded onto porous 0.4 micron Snapwell™ Inserts (CoStar), cultured at air-liquid interface (ALI) conditions in hormonally defined media, and assayed for sodium transport activity (ISC) while bathed in Krebs Bicarbonate Ringer (KBR) in Using chambers. All test drug additions are to the lumenal bath with half-log dose addition protocols (from 1×10^−11 M to 3×10^−5 M), and the cumulative change in ISC (inhibition) recorded. All drugs are prepared in dimethyl sulfoxide as stock solutions at a concentration of 1×10^−2 M and stored at −20° C. Eight preparations are typically run in parallel; two preparations per run incorporate amiloride and/or benzamil as positive controls. After the maximal concentration (5×10^−5 M) is administered, the lumenal bath is exchanged three times with fresh drug-free KBR solution, and the resultant ISC measured after each wash for approximately 5 minutes in duration. Reversibility is defined as the percent return to the baseline value for sodium current after the third wash. All data from the voltage clamps are collected via a computer interface and analyzed off-line.
Dose-effect relationships for all compounds are considered and analyzed by the Prism 3.0 program. IC50 values, maximal effective concentrations, and reversibility are calculated and compared to amiloride and benzamil as positive controls.
Amiloride was also tested in this assay as a positive control. The results for the compounds of the present invention are reported as fold-enhancement values relative to amiloride.

[2] = potency in canine bronchial epithelia relative to amiloride, Example 43
[3] = potency in canine bronchial epithelia relative to amiloride, Example 48

Row | melting point | SMILES | also measured
1 | 223 to 230 °C | Cl.Cl.N=C(N)NCCOc1ccc(CCCCNC(=N)NC(=O)c2nc(Cl)c(N)nc2N)cc1 [drawing 64: X=NH—C(═NH)—NH2, N-(3,5-diamino-6-chloropyrazine-2-carbonyl)-N′-{4-[4-(2-guanidinoethoxy)-phenyl]butyl}guanidine dihydrochloride] | Fold potency relative to amiloride ([1]; Example 51): 98.0 ± 58.5 (18); Fold Amiloride* ([1]; potency in canine bronchial epithelia relative to amiloride, Example 45): 120.6 ± 60.8 (11) fold
2 | 212 to 214 °C | CC(O)COc1ccc(CCCCNC(=N)NC(=O)c2nc(Cl)c(N)nc2N)cc1 (stereo not shown) (as salt: hydrochloride) [Example 18, 4-[4-(2-Hydroxypropyloxy)phenyl)]butylamidino-3,5-diamino-6-chloropyrazinecarboxamide hydrochloride] | –
3 | 140 to 170 °C (dec.) | N=C(N)c1ccc(CCCCNC(N)=NC(=O)c2nc(Cl)c(N)nc2N)cc1 [drawing 62: X=C═NH, Y=NH2, 4-{4-[N′-(3,5-Diamino-6-chloropyrazine-2-carbonyl)guanidino]butyl}benzamidine] | Fold Amiloride* [1, 2]: 53.2 ± 19.3 (2) fold
4 | 93 to 96 °C (dec.) | Cl.Cl.N=C(NCCCCc1ccc(OCCN(C[C@@H](O)[C@@H](O)CO)C[C@@H](O)[C@@H](O)CO)cc1)NC(=O)c1nc(Cl)c(N)nc1N [drawing 67: O CH2 CH2 NR R^a,c (r18), N-[4-(4-{2-[bis-((2R,3S)-2,3,4-trihydroxybutyl)amino]ethoxy}phenyl)-butyl]-N′-(3,5-diamino-6-chloropyrazine-2-carbonyl)guanidine dihydrochloride] | Fold Amiloride* [1, 3]: 56.0 (1) fold
5 | 148 °C (dec.) | Cl.N=C(NCCCCc1ccc(OCC(O)C(O)CO)cc1)NC(=O)c1nc(Cl)c(N)nc1N (stereo not shown) | –
6 | 161 to 163 °C (dec.) | N=C(NCCCCc1cccc(OCCO)c1)NC(=O)c1nc(Cl)c(N)nc1N (as salt: hydrochloride) [drawing 69: R=H, Meta, 4-[3-(2-Hydroxyethyloxy)phenyl)butylamidino-3,5-diamino-6-chloropyrazinecarboxamide hydrochloride] | –
7 | 161 °C | N=C(NCCCCc1ccc(OCCOC2CCCCO2)cc1)NC(=O)c1nc(Cl)c(N)nc1N (stereo not shown) [Example 20] | –
8 | 110 to 125 °C | COCCOCCOc1ccc(CCCCNC(=N)NC(=O)c2nc(Cl)c(N)nc2N)cc1 (as salt: hydrochloride) [drawing 50: n=2, 4-[4-(1,4,7-Trioxaoct-1-yl)phenyl]-butyl amidino-3,5-diamino-6-chloropyrazinecarboxamide hydrochloride] | –

More lines, now with the values behind:

Row | SMILES | melting point | also measured
9 | N=C(NCCCCc1ccccc1OCC(O)CO)NC(=O)c1nc(Cl)c(N)nc1N (stereo not shown) (as salt: hydrochloride) [drawing 69: R=CH2OH, Ortho, 4-[2-(2-,3-Dihydroxypropyloxy)phenyl)]butylamidino-3,5-diamino-6-chloropyrazinecarboxamide hydrochloride] | 200 to 205 °C | –
10 | N=C(NCCCCc1ccc(N)cc1)NC(=O)c1nc(Cl)c(N)nc1N (as salt: hydrochloride) [drawing 60: R=NH2, N=0, 4-[4-(4-Amino)phenyl)]butylamidino-3,5-diamino-6-chloropyrazinecarboxamide hydrochloride] | 195 to 200 °C | –
11 | N=C(NCCCCc1ccc(OCCN)cc1)NC(=O)c1nc(Cl)c(N)nc1N (as salt: hydrochloride) [drawing 61: R=NH2, n=2, 4-[4-(2-aminoethyloxy)phenyl)butylamidino-3,5-diamino-6-chloropyrazinecarboxamide hydrochloride] | > 178 °C (dec.) | –
12 | N=C(NCCCCc1cccc(OCC(O)CO)c1)NC(=O)c1nc(Cl)c(N)nc1N (stereo not shown) (as salt: hydrochloride) [drawing 69: R=CH2OH, Meta, 4-[3-(2-,3-Dihydroxypropyloxyl)phenyl)]butylamidino-3,5-diamino-6-chloropyrazinecarboxamide hydrochloride] | 91 to 93 °C | –
13 | COCCOCCOc1ccc(CCCCNC(=N)NC(=O)c2nc(Cl)c(N)nc2N)cc1 [drawing 50: n=2, 4-[4-(1,4,7-Trioxaoct-1-yl)phenyl]-butyl amidino-3,5-diamino-6-chloropyrazinecarboxamide hydrochloride] | – | Fold Enhancement Over Amiloride ([1]; potency in canine bronchial epithelia relative to amiloride, Example 30): 42 fold; Fold Amiloride* [1, 3]: 76.1 (1) fold
14 | N=C(NCCCCc1ccc(C(=O)NCCO)cc1)NC(=O)c1nc(Cl)c(N)nc1N [drawing 62: X=C═O, Y=NH(CH2)2—OH, 4-{4-[N-(3,5-diamino-6-chloropyrazine-2-carbonyl)guanidino]butyl}-N-(2-hydroxyethyl)benzamide hydrochloride] | – | Fold Amiloride* [1, 2]: 28.5 (1) fold
